One experiment has as its system A. baumannii 6043. The experiment can be described thus: microbe, parasite or virus in culture. The class given is cell-based, Acinetobacter baumannii. As to conditions: A. baumannii 6043, 24-h incubation, mean of 3 replicates from 2 independent experiments. On the procedure:
(§1) Strains were obtained from American Type Culture Collection (ATCC, Manassas, VA) or the clinical isolate collection at Trideum Biosciences (Frederick, MD, USA). Bioluminescence strains of P. aeruginosa 19660, transfected with the Xen5 luciferase gene, and S. aureus ATCC® 49525™ (Wright), transfected with the Xen36 luciferase gene, were obtained from Perkin Elmer (Hopkinton, MA).
(§2) A single colony was aseptically picked from an agar overlay and released in 25–30 mL of pre-warmed trypticase soy broth in a culture flask. Each culture was incubated overnight in a 37°C incubator. […] Pathogen growth was measured by absorbance at 600 nm. Four replicas were included for each test agent concentration. […]

The next experiment relates to A. baumannii 6838. The experiment can be described thus: microbe, parasite or virus in culture. Type of experiment: cell-based, Acinetobacter baumannii. To be noted: A. baumannii 6838, 24-h incubation, mean of 3 replicates from 2 independent experiments. On the procedure: as §1, §2
The subject of another experiment is K. pneumonia 6066. The experiment can be described thus: microbe, parasite or virus in culture. As to conditions: K. pneumonia 6066, 24-h incubation, mean of 3 replicates from 2 independent experiments. Type of experiment: cell-based, Klebsiella pneumoniae. As to the method: as §1, §2
A further experiment deals with K. pneumonia 6069. Put plainly: microbe, parasite or virus in culture. The class given is cell-based, Klebsiella pneumoniae. To be noted: K. pneumonia 6069, 24-h incubation, mean of 3 replicates from 2 independent experiments. On the procedure: as §1, §2
In the next experiment the test system is K. pneumonia ATCC 10031. The experiment can be described thus: microbe, parasite or virus in culture. As to conditions: K. pneumonia ATCC 10031, 24-h incubation, mean of 3 replicates from 2 independent experiments. The class given is cell-based, Klebsiella pneumoniae. On the procedure:
as §1, §2

A further experiment relates to P. aeruginosa 6186. Put plainly: microbe, parasite or virus in culture. Type of experiment: cell-based, Pseudomonas aeruginosa. As to conditions: P. aeruginosa 6186, 24-h incubation, mean of 3 replicates from 2 independent experiments. On the procedure: as §1, §2
In the next experiment the test system is P. aeruginosa ATCC 19660. The experiment can be described thus: microbe, parasite or virus in culture. Type of experiment: cell-based, Pseudomonas aeruginosa. As to conditions: P. aeruginosa ATCC 19660, 24-h incubation, mean of 3 replicates from 2 independent experiments. As to the method:
as §1, §2

Experiment [1] concerns P. aeruginosa ATCC 27853. The experiment can be described thus: microbe, parasite or virus in culture. Type of experiment: cell-based, Pseudomonas aeruginosa. To be noted: P. aeruginosa ATCC 27853, 24-h incubation, mean of 3 replicates from 2 independent experiments. On the procedure: as §1, §2
Another experiment concerns MRSA 6313. The experiment can be described thus: microbe, parasite or virus in culture. Type of experiment: cell-based, Staphylococcus aureus. To be noted: MRSA 6313, 24-h incubation, mean of 3 replicates from 2 independent experiments. On the procedure: as §1, §2
For another experiment, the system named is MRSA 6381. Put plainly: microbe, parasite or virus in culture. Type of experiment: cell-based, Staphylococcus aureus. To be noted: MRSA 6381, 24-h incubation, mean of 3 replicates from 2 independent experiments. As to the method:
as §1, §2

The test system of a further experiment is MRSA ATCC 33592. Put plainly: microbe, parasite or virus in culture. The class given is cell-based, Staphylococcus aureus. As to conditions: MRSA ATCC 33592, 24-h incubation, mean of 3 replicates from 2 independent experiments. On the procedure:
as §1, §2

Another experiment relates to S. aureus 6061. The experiment can be described thus: microbe, parasite or virus in culture. The class given is cell-based, Staphylococcus aureus. As to conditions: S. aureus 6061, 24-h incubation, mean of 3 replicates from 2 independent experiments. As to the method:
as §1, §2

A further experiment concerns S. aureus B-767. Put plainly: microbe, parasite or virus in culture. Type of experiment: cell-based, Staphylococcus aureus. As to conditions: S. aureus B-767, 24-h incubation, mean of 3 replicates from 2 independent experiments. As to the method:
as §1, §2

The next experiment concerns S. epidermis ATCC 51625. Put plainly: microbe, parasite or virus in culture. Type of experiment: cell-based, S. epidermidis. To be noted: S. epidermis ATCC 51625, 24-h incubation, mean of 3 replicates from 2 independent experiments. As to the method: as §1, §2
The test system of a further experiment is E. cloacae 6053. Put plainly: microbe, parasite or virus in culture. The class given is cell-based. As to conditions: E. cloacae 6053, 24-h incubation, mean of 3 replicates from 2 independent experiments. As to the method: as §1, §2
In another experiment the test system is E. cloacae 6054. The experiment can be described thus: microbe, parasite or virus in culture. Type of experiment: cell-based. To be noted: E. cloacae 6054, 24-h incubation, mean of 3 replicates from 2 independent experiments. As to the method:
as §1, §2

Another experiment relates to A. baumannii ATCC 17978. The experiment can be described thus: microbe, parasite or virus in culture. To be noted: Acinetobacter baumannii, ATCC17978; A. baumannii ATCC 17978; 24-h incubation; mean of 3 replicates from 2 independent experiments; read-out: Minimum Inhibitory Concentration (MIC). The class given is cell-based, Acinetobacter baumannii. As to the method:
as §1, §2

Experiment [2] has as its system bioluminescent P. aeruginosa 19660. Put plainly: Bioluminescence time-kill assay. The class given is cell-based, Pseudomonas aeruginosa. As to conditions: antibiotics after 30 min incubation, triplicates, two independent experiments. As to the method:
as §1
(§3) Non-invasive real-time evaluation of viability, mammalian, and bacterial cells, was performed using bioluminescent human keratinocytes (HaCaT, AddexBio, San Diego, CA) and murine L929 fibroblast cells (ATCC, Manassas, VA). The bioluminescent variants were constructed by transfection with a luciferase gene (RediFect Red-Fluc-Puromycin, Catalog #CL596002) (Hamblin et al., [2003]). […] Each concentration was performed in triplicate. Bioluminescence imaging was performed at pre-specified times (0, 15, and 30 min and 1, 3, 5, 8, and 24 h) and compared to concurrently run vehicle-controls. The 96-well plate was positioned on the stage (12.5-cm field of view) within the in vivo Imaging System (IVIS) imaging system (Caliper Life Sciences, Inc., Hopkinton, MA, USA), with an open emission filter, binning of 4, and f-stop 1, and a 1-min exposure time. The resultant photons emitted from the live cells were quantified using Living Image® software (version 4.3, Caliper Life Sciences, Inc.). […]

In experiment [3] the test system is bioluminescent S. aureus 49525. Put plainly: Bioluminescence time-kill assay. The class given is cell-based, Staphylococcus aureus. To be noted: antibiotics after 30 min incubation, triplicates, two independent experiments. On the procedure: as §1, §3
The next experiment relates to S. aureus ATCC 29213. Put plainly: microbe, parasite or virus in culture. To be noted: for MIC: Staphylococcus aureus. The text has this: (§4) The development of resistance was confirmed if the microorganism started growing at continuously higher concentrations. […] Evaluations were done in duplicate.
In experiment [4] the test system is P. aeruginosa ATCC 27853. The experiment can be described thus: Antibiotic resistance profiling, 30 serial passages. Type of experiment: cell-based, Pseudomonas aeruginosa. To be noted: for MIC: Pseudomonas aeruginosa.
Source text: as §4

Setting [5] is: Acinetobacter baumannii, read-out: Minimum Inhibitory Concentration (MIC).
Setting [6] is: Klebsiella pneumoniae, read-out: Minimum Inhibitory Concentration (MIC).
[7] abbreviates: Staphylococcus aureus, read-out: Minimum Inhibitory Concentration (MIC).
Setting [8] is: Enterobacter cloacae, read-out: Minimum Inhibitory Concentration (MIC).

In brackets after ≈: the same amount, converted by molar mass. Like-named read-outs stand apart in the source and are kept apart here.

With `CC[C@H](C)[C@H](NC(=O)[C@H](CCCCN)NC(=O)[C@H](CCC(=O)O)NC(=O)[C@H](CCCCN)NC(=O)[C@H](CO)NC(=O)[C@H](CCCCN)NC(=O)[C@H](CCCNC(=N)N)NC(=O)[C@H](Cc1ccccc1)NC(=O)[C@H](Cc1ccccc1)NC(=O)[C@H](CC(=O)O)NC(=O)CNC(=O)[C@H](CC(C)C)NC(=O)[C@@H](N)CC(C)C)C(=O)NCC(=O)N[C@@H](CCCCN)C(=O)N[C@@H](CCC(=O)O)C(=O)N[C@@H](Cc1ccccc1)C(=O)N[C@@H](CCCCN)C(=O)N[C@@H](CCCNC(=N)N)C(=O)N[C@H](C(=O)N[C@H](C(=O)N[C@@H](CCC(N)=O)C(=O)N[C@@H](CCCNC(=N)N)C(=O)N[C@H](C(=O)N[C@@H](CCCCN)C(=O)N[C@@H](CC(=O)O)C(=O)N[C@@H](Cc1ccccc1)C(=O)N[C@@H](CC(C)C)C(=O)N[C@@H](CCCNC(=N)N)C(=O)N[C@@H](CC(N)=O)C(=O)N[C@@H](CC(C)C)C(=O)N[C@H](C(=O)N1CCC[C@H]1C(=O)N[C@@H](CCCNC(=N)N)C(=O)N[C@H](C(=O)N[C@@H](CCC(=O)O)C(=O)N[C@@H](CO)C(=O)O)[C@@H](C)O)C(C)C)[C@@H](C)CC)C(C)C)[C@@H](C)CC` [LL-37], the “Minimum Inhibitory Concentration (MIC)” value was 14.2 [64] μM with A. baumannii 6043; >28.5 [128] μM in the experiment on A. baumannii 6838; >28.5 [128] μM in the experiment with K. pneumonia 6066; >28.5 [128] μM in the experiment on K. pneumonia 6069; >28.5 [128] μM in the experiment on K. pneumonia ATCC 10031; >28.5 [128] μM in the experiment with P. aeruginosa 6186. Besides, the “Minimum Inhibitory Concentration (MIC)” value was 28.5 [128] μM with P. aeruginosa ATCC 19660; 28.5 [128] μM in the experiment on P. aeruginosa ATCC 27853 [1]; >28.5 [128] μM in the experiment with MRSA 6313; >28.5 [128] μM in the experiment with MRSA 6381; >28.5 [128] μM in the experiment with MRSA ATCC 33592; >28.5 [128] μM with S. aureus 6061. Also, the “Minimum Inhibitory Concentration (MIC)” value in the experiment with S. aureus B-767, in the experiment with S. epidermis ATCC 51625, in the experiment on E. cloacae 6053 and with E. cloacae 6054 was >28.5 [128] μM in each case.

With `NC[C@H]1O[C@H](O[C@H]2[C@H](O)[C@@H](O[C@H]3O[C@H](CO)[C@@H](O)[C@H](N)[C@H]3O)[C@H](N)C[C@@H]2N)[C@H](N)C[C@@H]1O` [Tobramycin, tobramycin], the MIC in the experiment on A. baumannii 6043 (setting [5]) worked out at 68.5 µM (≈ 32 µg/mL); with A. baumannii 6838 (setting [5]) it was 4.3 µM (≈ 2.01 µg/mL); in the experiment with A. baumannii ATCC 17978 it was 4.3 µM (≈ 2.01 µg/mL); with K. pneumonia 6066 (setting [6]), 8.6 µM (≈ 4.02 µg/mL); in the experiment on K. pneumonia 6069 (setting [6]), 4.3 µM (≈ 2.01 µg/mL); with K. pneumonia ATCC 10031 (Klebsiella pneumoniae, ATCC10031, read-out: Minimum Inhibitory Concentration (MIC)), 4.3 µM (≈ 2.01 µg/mL). Moreover, the MIC in the experiment with P. aeruginosa 6186 (Pseudomonas aeruginosa, read-out: Minimum Inhibitory Concentration (MIC)) is over 274 µM; in the experiment on P. aeruginosa ATCC 19660 (Pseudomonas aeruginosa, ATCC19660, read-out: Minimum Inhibitory Concentration (MIC)), over 274 µM; in the experiment with P. aeruginosa ATCC 27853 [1] (Pseudomonas aeruginosa, ATCC27853, read-out: Minimum Inhibitory Concentration (MIC)), 4.3 µM (≈ 2.01 µg/mL); in the experiment on MRSA 6313 (setting [7]), over 274 µM; in the experiment with MRSA 6381 (setting [7]), 274 µM (≈ 128 µg/mL); with MRSA ATCC 33592 (setting [7]) it was 137 µM (≈ 64.1 µg/mL). The MIC in the experiment on S. aureus 6061 (setting [7]) is 8.6 µM (≈ 4.02 µg/mL); with S. aureus B-767 (Staphylococcus aureus, B767, read-out: Minimum Inhibitory Concentration (MIC)), over 274 µM; in the experiment with S. epidermis ATCC 51625 (Staphylococcus epidermidis, ATCC51625, read-out: Minimum Inhibitory Concentration (MIC)), 4.3 µM (≈ 2.01 µg/mL); in the experiment on E. cloacae 6053 (setting [8]), 68.5 µM (≈ 32 µg/mL); in the experiment with E. cloacae 6054 (setting [8]) it was 137 µM (≈ 64.1 µg/mL). Moreover, the “Bactericidal activity in time-kill assay” value in experiment [2] and in [3] was “no trace of antibacterial activity” in each case.

For `CCC[C@@H]1C[C@@H](C(=O)N[C@@H]([C@H]2O[C@H](SC)[C@H](O)[C@@H](O)[C@H]2O)[C@H](C)Cl)N(C)C1` [clindamycin], the “Fold increase in MIC value, Passage #30 vs #0” value with S. aureus ATCC 29213 (S. aureus ATCC 29213) stood at 256 fold. Besides, the MIC in the experiment with S. aureus ATCC 29213 (ATCC29213, read-out: MIC on Passage #0 and Passage #1) worked out at 0.125 µg/mL (≈ 0.294 µM); in the experiment with S. aureus ATCC 29213 (ATCC29213, read-out: MIC on Passage #30) it was 32 µg/mL (≈ 75.3 µM).

`CNC(C)C1CCC(N)C(OC2C(N)CC(N)C(OC3OCC(C)(O)C(NC)C3O)C2O)O1` (centres unmarked) [gentamicin]: the “Fold increase in MIC value, Passage #30 vs #0” value in the experiment on P. aeruginosa ATCC 27853 [4] (P. aeruginosa ATCC 27853) is reported as 4,096 fold. The MIC stood at 0.125 µg/mL (≈ 0.262 µM) in the experiment on P. aeruginosa ATCC 27853 [4] (ATCC27853, read-out: MIC during Passage #0 and Passage #1); 512 µg/mL (≈ 1070 µM) in the experiment on P. aeruginosa ATCC 27853 [4] (ATCC27853, read-out: MIC during Passage #30).

The values are drawn from article PMC6667648 (Frontiers in Microbiology, 2019).
